Patent US20090215778A1, “Alpha-substituted Arylmethyl Piperazine Pyrazolo [1,5-alpha]Pyrimidine Amide Derivatives” (priority 2007, published 2009)

What was measured:
HIV-1, NL4-3 strain = test: Virus infection assay (virus entry and single-cycle infection); format: cell-based; conditions: Human immunodeficiency virus 1, NL43, TZM-b1, read-out: Nl4
How it was run: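 TZM-b1 cells (CD4, CXCR4, CCR5; LTR-driven lacZ/luciferase reporters) were infected with HIV-1 NL4-3 (MOI 0.01) with 80 μg/mL DEAE-dextran in the presence of test compound, 4 h at 37 °C before adding complete medium. Infection was quantified one day post-infection as chemiluminescent β-galactosidase signal.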

[1] = target: T1, HIV Env six-helix bundle (6HB) structure (Human immunodeficiency virus type 1 group M subtype B, UniProt P04579); test: Six-helix bundle (6HB) assay; format: cell-based, HIV-1 (strain RF)
T1 construct: H9 cells chronically infected with HIV-1 (H9/HIV-1RF); endogenous in cells; host or cells: H9 cells chronically infected with HIV-1 strain RF (Env is made from the virus in the infected cells, not by transfection)
T1 sequence (P04579 32-519): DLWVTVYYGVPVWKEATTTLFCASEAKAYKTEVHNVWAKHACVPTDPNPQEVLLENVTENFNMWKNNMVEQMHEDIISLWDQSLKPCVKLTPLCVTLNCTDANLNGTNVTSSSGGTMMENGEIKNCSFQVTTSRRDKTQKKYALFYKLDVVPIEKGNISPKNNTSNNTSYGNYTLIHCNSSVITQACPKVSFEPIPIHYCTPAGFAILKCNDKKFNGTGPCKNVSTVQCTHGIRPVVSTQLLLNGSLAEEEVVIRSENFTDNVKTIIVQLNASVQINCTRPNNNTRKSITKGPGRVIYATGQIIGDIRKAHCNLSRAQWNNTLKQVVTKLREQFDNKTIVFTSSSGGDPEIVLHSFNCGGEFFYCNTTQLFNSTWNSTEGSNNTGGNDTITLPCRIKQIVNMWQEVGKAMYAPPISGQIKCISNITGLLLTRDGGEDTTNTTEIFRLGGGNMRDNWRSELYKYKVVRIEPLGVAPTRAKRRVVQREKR
T1 sequence (P04579 520-865): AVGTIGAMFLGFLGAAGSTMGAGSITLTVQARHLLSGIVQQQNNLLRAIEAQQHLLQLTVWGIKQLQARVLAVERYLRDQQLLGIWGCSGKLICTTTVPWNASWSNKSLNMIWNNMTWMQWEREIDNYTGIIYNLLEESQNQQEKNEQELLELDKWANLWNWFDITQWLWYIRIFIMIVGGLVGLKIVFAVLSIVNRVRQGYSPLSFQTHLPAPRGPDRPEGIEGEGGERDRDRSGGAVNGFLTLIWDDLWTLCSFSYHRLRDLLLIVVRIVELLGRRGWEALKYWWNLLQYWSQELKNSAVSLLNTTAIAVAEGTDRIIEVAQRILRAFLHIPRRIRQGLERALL
How it was run: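 Chronically HIV-1 RF-infected H9 cells (12-40 days post-infection), 2.5×10^5 per well, were preincubated with compound for 30 min at 37 °C. sCD4 at 1 μg/mL was added for 1 h to trigger Env changes. 6HB-specific rabbit serum (1 h, 37 °C) was then added, followed by PE anti-rabbit (45 min, 4 °C), with flow cytometric fluorescence read-out.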

Compound	IC50 (HIV-1, NL4-3 strain)	IC50 [1]
COc1ccc(-c2nc3c(C(=O)N4CCN([C@@H](CO)c5ccc(C)s5)C[C@H]4C)cnn3c(C(F)(F)F)c2C)cc1 [methanone, [(2R)-4-[(1S)-2-hydroxy-1-(5-methyl-2-thienyl)ethyl]-2-methyl-1-piperazinyl][5-(4-methoxyphenyl)-6-methyl-7-(trifluoromethyl)pyrazolo[1,5-α]pyrimidin-3-yl]-]	< 1000 nM	< 1000 nM
COc1ccc(-c2nc3c(C(=O)N4CCN([C@H](C)c5ccc(F)c(F)c5)C[C@H]4C)cnn3c(C(F)(F)F)c2C)cc1 [methanone, [(2R)-4-[(1R)-1-(3,4-difluorophenyl)ethyl]-2-methyl-1-piperazinyl][5-(4-methoxyphenyl)-6-methyl-7-(trifluoromethyl)pyrazolo[1,5-α]pyrimidin-3-yl]-]	< 1000 nM	< 1000 nM
COc1ccc(-c2nc3c(C(=O)N4CCN(C(CO)c5cccc(OC(F)(F)F)c5)C[C@H]4C)cnn3c(C(F)(F)F)c2C)cc1 (stereo partly drawn) [methanone, [(2R)-4-[2-hydroxy-1-[3-(trifluoromethoxy)phenyl]ethyl]-2-methyl-1-piperazinyl][5-(4-methoxyphenyl)-6-methyl-7-(trifluoromethyl)pyrazolo[1,5-α]pyrimidin-3-yl]-]	< 1000 nM	< 1000 nM
COc1ccc(-c2nc3c(C(=O)N4CCN(C(CO)c5ccc(Br)nc5)C[C@H]4C)cnn3c(C(F)(F)F)c2C)cc1 (stereo partly drawn) [methanone, [(2R)-4-[1-(6-bromo-3-pyridinyl)-2-hydroxyethyl]-2-methyl-1-piperazinyl][5-(4-methoxyphenyl)-6-methyl-7-(trifluoromethyl)pyrazolo[1,5-α]pyrimidin-3-yl]-]	< 1000 nM	< 1000 nM
COc1ccc(-c2nc3c(C(=O)N4CCN(C(CO)c5ccc(F)cc5OC)C[C@H]4C)cnn3c(C(F)(F)F)c2C)cc1 (stereo partly drawn) [methanone, [(2R)-4-[1-(4-fluoro-2-methoxyphenyl)-2-hydroxyethyl]-2-methyl-1-piperazinyl][5-(4-methoxyphenyl)-6-methyl-7-(trifluoromethyl)pyrazolo[1,5-α]pyrimidin-3-yl]-]	< 1000 nM	< 1000 nM
COc1ccc(-c2nc3c(C(=O)N4CCN([C@@H](CO)c5cccc(OC)c5)C[C@H]4C)cnn3c(C(F)(F)F)c2C)cc1 [methanone, [(2R)-4-[(1R)-2-hydroxy-1-(3-methoxyphenyl)ethyl]-2-methyl-1-piperazinyl][5-(4-methoxyphenyl)-6-methyl-7-(trifluoromethyl)pyrazolo[1,5-α]pyrimidin-3-yl]-]	< 1000 nM	< 1000 nM
COc1ccc(-c2nc3c(C(=O)N4CCN(C(CO)c5cc(F)cc(F)c5)C[C@H]4C)cnn3c(C(F)(F)F)c2C)cc1 (stereo partly drawn) [methanone, [(2R)-4-[1-(3,5-difluorophenyl)-2-hydroxyethyl]-2-methyl-1-piperazinyl][5-(4-methoxyphenyl)-6-methyl-7-(trifluoromethyl)pyrazolo[1,5-α]pyrimidin-3-yl]-]	< 1000 nM	< 1000 nM
COc1ccc(-c2nc3c(C(=O)N4CCN(C(CO)c5cccc(NC(=O)OC(C)(C)C)c5)C[C@H]4C)cnn3c(C(F)(F)F)c2C)cc1 (stereo partly drawn) [carbamic acid, N-[3-[2-hydroxy-1-[(3R)-4-[[5-(4-methoxyphenyl)-6-methyl-7-(trifluoromethyl)pyrazolo[1,5-α]pyrimidin-3-yl]carbonyl]-3-methyl-1-piperazinyl]ethyl]phenyl]-, 1,1-dimethylethyl ester]	1100 to 10000 nM	1100 to 10000 nM
COc1ccc(-c2nc3c(C(=O)N4CCN([C@@H](C)c5cccc(N)c5)C[C@H]4C)cnn3c(C(F)(F)F)c2C)cc1 [methanone, [(2R)-4-[(1S)-1-(3-aminophenyl)ethyl]-2-methyl-1-piperazinyl][5-(4-methoxyphenyl)-6-methyl-7-(trifluoromethyl)pyrazolo[1,5-α]pyrimidin-3-yl]-]	< 1000 nM	< 1000 nM
